Experimental data reported in publication PMC7215599, “Synthesis, Antitumor Evaluation, Molecular Modeling and Quantitative Structure–Activity Relationship (QSAR) of Novel 2-[(4-Amino-6-N-substituted-1,3,5-triazin-2-yl)methylthio]-4-chloro-5-methyl-N-(1H-benzo[d]imidazol-2(3H)-ylidene)Benzenesulfonamides” (International Journal of Molecular Sciences, 2020).

Assays:
[1] = system: HCT-116 (colon cancer) cell line; test: MTT cell viability assay, HCT-116; type: cell-based, human; conditions: for IC50: MTT, 72 h, 1-100 µM, mean ± SD
Protocol: (§1) Compounds 6–49 were evaluated in vitro for their effects on the viability of the three human cancer cell lines: HCT-116 (colon cancer), MCF-7 (breast cancer) and HeLa (cervical cancer) as well as the non-cancerous keratinocyte cell line (HaCaT). The concentration required for 50% inhibition of cell viability IC50 was calculated and compared with the reference drug cisplatin, the results are shown in Table 1.
(§2) Cell lines: colon cancer (HCT-116), breast cancer (MCF-7), cervical cancer (HeLa), the human keratinocyte cell line (HaCaT); NT—not tested; IC50 was measured at concentrations 1, 10, 25, 50, and 100 µM. IC50 values are expressed as the mean ± SD of at last three independent experiments.
(§3) All chemicals, if not stated otherwise, were obtained from Sigma–Aldrich (St. Louis, MO, USA). The HCT-116 cell lines was purchased from ATCC (ATCC-No: CCL-247), while the MCF-7, HeLa and HaCaT cell lines were purchased from Cell Lines Services (Eppelheim, Germany). Cells were cultured in Dulbecco’s modified Eagle’s medium (DMEM) supplemented with 10% fetal bovine serum, 2 mM glutamine, 100 units/mL penicillin, and 100 µg/mL streptomycin. Cultures were maintained in a humidified atmosphere with 5% carbon dioxide at 37 °C in an incubator (Heraceus, HeraCell).
(§4) Cell viability was examined using the MTT (3-(4,5-dimethylthiazol-2-yl)-2,5-diphenyltetrazolium bromide) assay. Cells were seeded in 96-well plates at a density of 5 × 10^3 cells/well and treated for 72 h with the tested compounds in the concentration range of 1–100 µM (1, 10, 25, 50 and 100 µM). Then, MTT (0.5 mg/mL) was added to the medium and cells were further incubated for 2 h at 37 °C. In the next stage, cells were lysed with DMSO and the absorbance of the formazan solution was measured at 550 nm with a plate reader (1420 multilabel counter, Victor, Jügesheim, Germany). The experiment was performed in triplicate. Values are expressed as the mean ± SD of at least three independent experiments. Cisplatin was used as a positive control.

[2] = system: MCF-7 (breast cancer) cell line; test: MTT cell viability assay, MCF-7; type: cell-based, human; conditions: for IC50: MTT, 72 h, 1-100 µM, mean ± SD
Protocol: as §1, §2, §3, §4

[3] = system: HeLa (cervical cancer) cell line; test: MTT cell viability assay, HeLa; type: cell-based, human; conditions: 72 h, MTT, 1-100 µM, mean ± SD
Protocol: as §1, §2, §3, §4

[4] = system: HaCaT (non-cancerous keratinocyte cell line); test: MTT cell viability assay, HaCaT; type: cell-based; conditions: Homo sapiens, 72 h, 1-100 µM, mean ± SD, non-cancerous cells
Protocol: as §1, §2, §3, §4

[5] = system: HCT-116, MCF-7 and HeLa cell lines; test: MTT cell viability assay, all tested cancer cell lines taken together; type: cell-based; conditions: Homo sapiens; range over HCT-116, MCF-7 and HeLa; read-out: IC50 toward all of the tested cell lines (range over the lines)
Protocol: as §1, §2, §3, §4

Structure (SMILES)	IC50 ([1]; Homo sapiens, HCT-116, 72 h) [µM]	IC50 ([2]; Homo sapiens, MCF7, 72 h) [µM]	IC50 ([3]; Homo sapiens, HeLa) [µM]	IC50 [5] [µM]	IC50 [1] [µM]	IC50 [2] [µM]	IC50 [3] [µM]	IC50 [4] [µM]	selectivity ratio HaCaT/HCT-116 ([1]; ratio of IC50 values)	selectivity ratio HaCaT/MCF-7 ([2]; ratio of IC50 values)
Cc1cc(S(=O)(=O)N=c2[nH]c3ccccc3[nH]2)c(SCc2nc(N)nc(N3CCc4ccccc43)n2)cc1Cl [Compound 9, 2-{[4-Amino-6-(indolin-1-yl)-1,3,5-triazin-2-yl]metylthio}-N-(1H-benzo[d]imidazol-2(3H)-ylidene)-4-chloro-5-methylbenzenesulfonamide]	25 ± 1	20 ± 1	23 ± 1	17 to 30	–	–	–	42 ± 2	–	–
Cc1cc(S(=O)(=O)N=c2[nH]c3ccccc3[nH]2)c(SCc2nc(N)nc(N3CCN(c4ccccc4)CC3)n2)cc1Cl [Compound 19, 2-{[4-Amino-6-(4-phenylpiperazin-1-yl)-1,3,5-triazin-2-yl]methylthio}-N-(1H-benzo[d]imidazol-2(3H)-ylidene)-4-chloro-5-methylbenzenesulfonamide]	15 ± 1	19 ± 1	18 ± 1	7 to 19	–	–	–	31 ± 1	–	–
Cc1cc(S(=O)(=O)N=c2[nH]c3ccccc3[nH]2)c(SCc2nc(N)nc(N3CCN(c4ccc(F)cc4)CC3)n2)cc1Cl [Compound 20, 2-[{4-Amino-6-[4-(4-fluorophenyl)piperazin-1-yl]-1,3,5-triazin-2-yl}methylthio]-N-(1H-benzo[d]imidazol-2(3H)-ylidene)-4-chloro-5-methylbenzenesulfonamide]	16 ± 0.5	17 ± 0.5	17 ± 1	7 to 19	–	–	–	35 ± 1	–	–
Cc1cc(S(=O)(=O)N=c2[nH]c3ccccc3[nH]2)c(SCc2nc(N)nc(N3CCN(C)CC3)n2)cc1Cl [Compound 18, 2-{[4-Amino-6-(4-methylpiperazin-1-yl)-1,3,5-triazin-2-yl]metylthio}-N-(1H-benzo[d]imidazol-2(3H)-ylidene)-4-chloro-5-methylbenzenesulfonamide]	42 ± 2	> 100	61 ± 2	42 to 82	–	82 ± 3	–	84 ± 3	–	–
Cc1cc(S(=O)(=O)N=c2[nH]c3ccccc3[nH]2)c(SCc2nc(N)nc(N3CCN(c4ccc(Cl)cc4)CC3)n2)cc1Cl [Compound 23, 2-[{4-Amino-6-[4-(4-chlorophenyl)piperazin-1-yl]-1,3,5-triazin-2-yl}methylthio]-N-(1H-benzo[d]imidazol-2(3H)-ylidene)-4-chloro-5-methylbenzenesulfonamide]	16 ± 0.5	17 ± 0.5	17 ± 1	7 to 19	–	–	–	35 ± 1	–	–
COc1ccccc1N1CCN(c2nc(N)nc(CSc3cc(Cl)c(C)cc3S(=O)(=O)N=c3[nH]c4ccccc4[nH]3)n2)CC1 [Compound 28, 2-[{4-Amino-6-[4-(2-methoxyphenyl)piperazin-1-yl]-1,3,5-triazin-2-yl}metylthio]-N-(1H-benzo[d]imidazol-2(3H)-ylidene)-4-chloro-5-methylbenzenesulfonamide]	16 ± 1	24 ± 1	24 ± 1	–	–	–	–	35 ± 1	–	–
Cc1cc(S(=O)(=O)N=c2[nH]c3ccc(F)cc3[nH]2)c(SCc2nc(N)nc(N3CCc4ccccc43)n2)cc1Cl [Compound 34, 2-{[4-Amino-6-(indolin-1-yl)-1,3,5-triazin-2-yl]metylthio}-4-chloro-N-(5-fluoro-1H-benzo[d]imidazol-2(3H)-ylidene)-5-methylbenzenesulfonamide]	17 ± 1	25 ± 1	30 ± 1	17 to 30	–	–	–	41 ± 1	–	–
Cc1cc(S(=O)(=O)N=c2[nH]c3ccccc3[nH]2)c(SCc2nc(N)nc(N3CCN(S(=O)(=O)c4ccccc4)CC3)n2)cc1Cl [Compound 32, 2-[{4-Amino-6-[4-(phenylsulfonyl)piperazin-1-yl]-1,3,5-triazin-2-yl}methylthio]-N-(1H-benzo[d]imidazol-2(3H)-ylidene)-4-chloro-5-methylbenzenesulfonamide]	–	> 100	–	137 to 280	–	137 ± 3	–	–	–	–
Cc1cc(S(=O)(=O)N=c2[nH]c3ccccc3[nH]2)c(SCc2nc(N)nc(Nc3ccc(F)cc3)n2)cc1Cl [Compound 12, 2-[{4-Amino-6-[(4-fluorophenyl)amino]-1,3,5-triazin-2-yl}metylthio]-N-(1H-benzo[d]imidazol-2(3H)-ylidene)-4-chloro-5-methylbenzenesulfonamide]	36 ± 1	35 ± 2	36 ± 2	–	–	–	–	43 ± 2	–	–

Now from value to compound, other results behind:

IC50 ([1]; Homo sapiens, HCT-116, 72 h) [µM]	IC50 ([2]; Homo sapiens, MCF7, 72 h) [µM]	IC50 ([3]; Homo sapiens, HeLa) [µM]	IC50 [5] [µM]	IC50 [1] [µM]	IC50 [2] [µM]	IC50 [3] [µM]	Structure (SMILES)	IC50 [4] [µM]	selectivity ratio HaCaT/HCT-116 ([1]; ratio of IC50 values)	selectivity ratio HaCaT/MCF-7 ([2]; ratio of IC50 values)
18 ± 1	23 ± 1	24 ± 1	17 to 30	–	–	–	Cc1cc(S(=O)(=O)N=c2[nH]c3ccc(Cl)cc3[nH]2)c(SCc2nc(N)nc(Nc3ccccc3)n2)cc1Cl [Compound 42, 2-{[4-Amino-6-(phenylamino)-1,3,5-triazin-2-yl]methylthio}-4-chloro-N-(5-chloro-1H-benzo[d]imidazol-2(3H)-ylidene)-5-methylbenzenesulfonamide]	37 ± 1	–	–
7 to 11	17 to 19	11 to 18	7 to 19	7 ± 0.1	15 ± 1	18 ± 1	Cc1cc(S(=O)(=O)N=c2[nH]c3ccc(Cl)cc3[nH]2)c(SCc2nc(N)nc(N3CCN(c4ccc(F)cc4)CC3)n2)cc1Cl [Compound 46, 2-[{4-Amino-6-[4-(4-fluorophenyl)piperazin-1-yl]-1,3,5-triazin-2-yl}metylthio]-4-chloro-N-(5-chloro-1H-benzo[d]imidazol-2(3H)-ylidene)-5-methylbenzenesulfonamide]	28 ± 1	4	2
21 ± 1	24 ± 1	22 ± 1	–	–	–	–	Cc1cc(S(=O)(=O)N=c2[nH]c3ccc(Cl)cc3[nH]2)c(SCc2nc(N)nc(N3CCN(c4ccc(C(F)(F)F)cc4)CC3)n2)cc1Cl [Compound 47, 2-{[4-Amino-6-{4-[4-(trifluoromethyl)phenyl]piperazin-1-yl}-1,3,5-triazin-2-yl]methylthio}-4-chloro-N-(5-chloro-1H-benzo[d]imidazol-2(3H)-ylidene)-5-methylbenzenesulfonamide]	38 ± 1	–	–
16 ± 1	43 ± 1	18 ± 1	–	–	–	–	Cc1cc(S(=O)(=O)N=c2[nH]c3ccc(F)cc3[nH]2)c(SCc2nc(N)nc(N3CCN(c4ccc(Cl)c(Cl)c4)CC3)n2)cc1Cl [Compound 40, 2-[{4-Amino-6-[4-(3,4-dichlorophenyl)piperazin-1-yl]-1,3,5-triazin-2-yl}metylthio]-4-chloro-N-(5-fluoro-1H-benzo[d]imidazol-2(3H)-ylidene)-5-methylbenzenesulfonamide]	46 ± 1	–	–
25 ± 1	38 ± 2	30 ± 1	–	–	–	–	CC1=NN(c2nc(N)nc(CSc3cc(Cl)c(C)cc3S(=O)(=O)N=c3[nH]c4ccc(Cl)cc4[nH]3)n2)C(C)(C)C1 [Compound 41, 2-{[4-Amino-6-(3,5,5-trimethyl-4,5-dihydro-1H-pyrazol-1-yl)-1,3,5-triazin-2-yl]metylthio}-4-chloro-N-(5-chloro-1H-benzo[d]imidazol-2(3H)-ylidene)-5-methylbenzenesulfonamide]	49 ± 1	–	–
